Assay results: the supplement of paper PMC10307832

Key:
Test in all cases: relative viability (nuclei count vs DMSO), 5 days (fraction); higher = more cells survive
KIN001-266 + Vorinostat = compound: CCN1CCC(CC1)N2C=C(N=N2)CNC3=CC4=C(C(=CN=C4C(=C3)Cl)C#N)NC5=CC(=C(C=C5)F)Cl [KIN001-266] + O=C(CCCCCCC(=O)Nc1ccccc1)NO [Vorinostat] (partner 1 µM)
Procedure, shortened: (§1)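 Lung cancer cell lines, seeded in 1536-well plates, were treated the following day by pin tool with a single drug or with five library-drug doses (not always all listed) in √10 steps on top of a fixed anchor-drug dose. Cells were fixed and nuclei stained in one step after 5 days, and nuclei were counted. Relative viability is the nuclei count for treated wells divided by that for vehicle wells, reported as medians of duplicate plates.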

KIN001-266 + Palbociclib = compound: CCN1CCC(CC1)N2C=C(N=N2)CNC3=CC4=C(C(=CN=C4C(=C3)Cl)C#N)NC5=CC(=C(C=C5)F)Cl [KIN001-266] + CC(=O)c1c(C)c2cnc(Nc3ccc(N4CCNCC4)cn3)nc2n(C2CCCC2)c1=O [Palbociclib] (partner 0.5 µM)
Procedure, shortened: as §1

KIN001-266 + Dasatinib = compound: CCN1CCC(CC1)N2C=C(N=N2)CNC3=CC4=C(C(=CN=C4C(=C3)Cl)C#N)NC5=CC(=C(C=C5)F)Cl [KIN001-266] + Cc1nc(Nc2ncc(C(=O)Nc3c(C)cccc3Cl)s2)cc(N2CCN(CCO)CC2)n1 [Dasatinib] (partner 0.075 µM)
Procedure, shortened: as §1

KIN001-266 + Pemetrexed = compound: CCN1CCC(CC1)N2C=C(N=N2)CNC3=CC4=C(C(=CN=C4C(=C3)Cl)C#N)NC5=CC(=C(C=C5)F)Cl [KIN001-266] + Nc1nc2[nH]cc(CCc3ccc(C(=O)N[C@@H](CCC(=O)O)C(=O)O)cc3)c2c(=O)[nH]1 [Pemetrexed] (partner 0.2 µM)
Procedure, shortened: as §1

Row | Cell Line | relative viability (KIN001-266 + Vorinostat; first compound 0.08 µM) | relative viability (KIN001-266 + Vorinostat; first compound 0.253 µM) | relative viability (KIN001-266 + Vorinostat; first compound 0.8 µM) | relative viability (KIN001-266 + Vorinostat; first compound 2.53 µM) | relative viability (KIN001-266 + Vorinostat; first compound 8 µM) | relative viability (KIN001-266 + Palbociclib; first compound 0.08 µM) | relative viability (KIN001-266 + Palbociclib; first compound 0.253 µM) | relative viability (KIN001-266 + Palbociclib; first compound 0.8 µM) | relative viability (KIN001-266 + Palbociclib; first compound 2.53 µM) | relative viability (KIN001-266 + Palbociclib; first compound 8 µM) | relative viability (KIN001-266 + Dasatinib; first compound 0.08 µM) | relative viability (KIN001-266 + Dasatinib; first compound 0.253 µM) | relative viability (KIN001-266 + Dasatinib; first compound 0.8 µM) | relative viability (KIN001-266 + Dasatinib; first compound 2.53 µM) | relative viability (KIN001-266 + Dasatinib; first compound 8 µM) | relative viability (KIN001-266 + Pemetrexed; first compound 0.08 µM) | relative viability (KIN001-266 + Pemetrexed; first compound 0.253 µM) | relative viability (KIN001-266 + Pemetrexed; first compound 0.8 µM) | relative viability (KIN001-266 + Pemetrexed; first compound 2.53 µM) | relative viability (KIN001-266 + Pemetrexed; first compound 8 µM)
1 | 201T | 1.02 | 0.969 | 0.876 | 0.988 | 0.934 | 0.342 | 0.366 | 0.35 | 0.361 | 0.359 | 0.62 | 0.513 | 0.545 | 0.606 | 0.589 | 0.342 | 0.375 | 0.352 | 0.34 | 0.319
2 | A-427 | 0.885 | 0.88 | 0.883 | 0.82 | 0.856 | 0.511 | 0.524 | 0.5 | 0.493 | 0.526 | 0.742 | 0.614 | 0.661 | 0.686 | 0.575 | 1.01 | 0.96 | 1.04 | 0.881 | 0.95
3 | ABC-1 | 1.36 | 1.24 | 1.26 | 1.09 | 0.987 | 0.789 | 0.799 | 0.598 | 0.65 | 0.558 | 0.521 | 0.632 | 0.652 | 0.489 | 0.399 | – | – | – | – | –
4 | BEN | 0.607 | 0.531 | 0.601 | 0.559 | 0.635 | 0.439 | 0.495 | 0.511 | 0.467 | 0.507 | 0.296 | 0.362 | 0.292 | 0.274 | 0.345 | 0.982 | 0.776 | 0.919 | 0.68 | 0.744
5 | CAL-12T | 0.728 | 0.662 | 0.903 | 0.73 | 0.895 | 0.44 | 0.492 | 0.438 | 0.359 | 0.419 | 0.444 | 0.49 | 0.345 | 0.52 | 0.278 | 1.25 | 1.1 | 1.15 | 1.2 | 1.15
6 | COR-L23 | 0.397 | 0.46 | 0.62 | 0.422 | 0.237 | 0.334 | 0.28 | 0.281 | 0.294 | 0.22 | 0.523 | 0.495 | 0.476 | 0.484 | 0.372 | 0.204 | 0.219 | 0.206 | 0.191 | 0.209
7 | COR-L 105 | 0.796 | 1.07 | 0.899 | 0.594 | 0.814 | 0.399 | 0.386 | 0.376 | 0.407 | 0.436 | 0.373 | 0.419 | 0.343 | 0.377 | 0.326 | 1.13 | 1.06 | 0.883 | 1.11 | 1.07
8 | ChaGo-K-1 | 0.792 | 0.718 | 0.737 | 0.645 | 0.535 | 0.949 | 1.01 | 0.851 | 0.84 | 0.428 | 0.581 | 0.58 | 0.528 | 0.512 | 0.533 | 0.264 | 0.268 | 0.255 | 0.25 | 0.237
9 | EKVX | 0.663 | 0.671 | 0.757 | 0.735 | 0.678 | 0.402 | 0.406 | 0.403 | 0.391 | 0.367 | 0.468 | 0.519 | 0.549 | 0.533 | 0.406 | 0.295 | 0.432 | 0.406 | 0.391 | 0.375
10 | EMC-BAC-2 | 0.53 | 0.614 | 0.564 | 0.505 | 0.849 | 0.54 | 0.581 | 0.523 | 0.562 | 0.561 | 0.352 | 0.392 | 0.319 | 0.373 | 0.331 | 0.505 | 0.504 | 0.449 | 0.462 | 0.529
11 | EPLC-272H | 0.417 | 0.662 | 0.621 | 0.429 | 0.384 | 0.348 | 0.354 | 0.275 | 0.307 | 0.312 | 0.467 | 0.324 | 0.333 | 0.421 | 0.234 | 0.373 | 0.364 | 0.374 | 0.319 | 0.323
12 | H3255 | 0.882 | 0.839 | 0.792 | 0.721 | 0.836 | 0.336 | 0.3 | 0.307 | 0.311 | 0.282 | 0.359 | 0.334 | 0.288 | 0.404 | 0.346 | 0.55 | 0.585 | 0.5 | 0.506 | 0.505
13 | HARA | 0.544 | 0.603 | 0.481 | 0.462 | 0.502 | 0.237 | 0.27 | 0.261 | 0.237 | 0.18 | 0.26 | 0.256 | 0.231 | 0.264 | 0.281 | 0.289 | 0.276 | 0.256 | 0.242 | 0.206
14 | HCC-15 | 0.871 | 0.932 | 0.842 | 0.747 | 0.616 | 0.707 | 0.806 | 0.593 | 0.608 | 0.509 | 0.683 | 0.592 | 0.566 | 0.596 | 0.448 | 0.234 | 0.222 | 0.221 | 0.206 | 0.225
15 | HCC-44 | 1.15 | 1.09 | 1.04 | 1.14 | 1.11 | 1.06 | 0.973 | 0.95 | 0.949 | 1.03 | – | – | – | – | – | 0.678 | 0.651 | 0.607 | 0.592 | 0.642
16 | HCC-78 | 0.582 | 0.36 | 0.419 | 0.493 | 0.453 | 0.506 | 0.518 | 0.476 | 0.431 | 0.415 | 0.566 | 0.421 | – | 0.361 | 0.38 | 0.874 | 0.832 | 0.872 | 0.873 | 0.91
17 | HCC-366 | 0.436 | 0.338 | 0.294 | 0.373 | 0.443 | 0.425 | 0.371 | 0.302 | 0.407 | 0.403 | 0.783 | 0.591 | 0.627 | 0.656 | 0.656 | 0.207 | 0.157 | 0.144 | 0.184 | 0.24
